Experimental data taken from a compilation of properties of binary mixtures (doi:10.1007/s10953-016-0518-2).

Assay: xn = mol fraction of the nth substance listed
Details: 101 kPa

OCCO + CC[n+]1ccn(C)c1.F[B-](F)(F)F
x2 = 0
Details | viscosity [mPa·s]
303.15 K | 13.8
313.15 K | 9.62
323.15 K | 6.92

CC[n+]1ccn(C)c1.F[B-](F)(F)F + OCCO
viscosity [mPa·s]
Details | x1 = 0.0993 | x1 = 0.2001 | x1 = 0.3023 | x1 = 0.4011 | x1 = 0.5003 | x1 = 0.598 | x1 = 0.7003 | x1 = 0.7997 | x1 = 0.8997 | x1 = 1
303.15 K | 10.5 | 9.63 | 9.5 | – | 10.6 | 11.9 | 14 | 16.9 | 21.4 | 28
313.15 K | 7.54 | 6.96 | 6.97 | – | 7.91 | 8.98 | 10.5 | 12.7 | 15.9 | 20.4
323.15 K | 5.57 | 5.22 | 5.3 | 5.63 | 6.21 | 7.05 | 8.29 | 9.9 | 12.3 | 15.3
333.15 K | – | – | 4.2 | 4.51 | 5.02 | 5.7 | 6.7 | 8.07 | 9.7 | 12.1
